We go through two molecules from patent US20200390101A1, “MICROBICIDAL COMPOSITION” (DOW GLOBAL TECHNOLOGIES LLC, priority 2017, published 2020).

For the test, the system named is anaerobic sulfate-reducing bacteria. Kind of test: Sulfide control efficacy against anaerobic sulfate-reducing bacteria (colorimetric sulfide measurement after 2 days at 35° C.). The following applies: for Sulfide (ppm): sulfide level at the listed THPS/nitrate concentrations after 2 days at 35° C. It counts as cell-based. How it is done: Inside an anaerobic chamber (Bactron anaerobic chamber), a deoxygenated sterile salt solution (3.12 g of NaCl, 0.13 g of NaHCO3, 0.17 g of Na2SO4, 47.70 mg of KC1, 72.00 mg of CaCl2, 54.49 mg of MgSO4, 43.92 mg of Na2CO3 in 1 L water and then enriched with 5% of ATCC 1249 Modified Baar's Medium) was inoculated with a sulfate-reducing bacteria which has a high similarity in 16S rRNA gene sequence with Desulfovibrio alaskensis and Desulfovibrio vietnamensis, at a final bacterial concentrations of 10^7 CFU/mL. […] After the mixtures were incubated at 35° C. for 2 days, sulfide level in all treatments including non THPS and or nitrate controls were measured using a colorimetric method described by D. Andrew et. al in “Standard Methods for the Examination of Water and Wastewater 4500-S2-”, with a scaled down sample size (250 μl) and reagents (scaled down accordingly) to allow the analysis to be done in 96-well micro-titer plates. Final results were read using a 96-well plate reader (TECAN Sunrise) at wavelength of 580 nm.
SI is calculated as follows:
Ca/CA+Cb/CB=Synergy Index (“SI”)

Consider `O=[N+]([O-])[O-].[Na+]` [THPS:Nitrate 0:1, sodium nitrate], for which the “Sulfide (ppm)” value was 74.26 ppm. Also, the “Active ppm concentration required to control sulfide below 10 ppm, Nitrate” value (nitrate component (sodium nitrate), 10^7 CFU/mL, 35° C., 2 days, anaerobic) is recorded as more than 800 ppm.
Regarding “tetrakis(hydroxymethyl) phosphonium sulfate [THPS:Nitrate 1:0]”, the “Sulfide (ppm)” value is given as 2.48 ppm. Also, where the note is “THPS component, 10^7 CFU/mL, 35° C., 2 days, anaerobic”, the “Active ppm concentration required to control sulfide below 10 ppm, THPS” value is recorded as 12.50 ppm.
